Results published in patent publication US7745489B2, “Compositions and methods for inhibition of phospholipase A2 mediated inflammation” (The Regents of the University of California, priority 2002, dated 2010).
Values joined by “and” are separate entries in the source; they are usually repeats but may differ in a detail not shown here. Identical values can stand only once. Like-named read-outs stand apart in the source and are kept apart here.

What was measured:
P388D1 cells = experiment: PGE2 release from stimulated P388D1 macrophages; type: cell-based, murine; conditions: for inhibition at 50 µM / IC50: Mus musculus; for inhibition at 50 µM: LPS 1 hour then PAF 15 min, maximal dosage tested 50 μM; for IC50: LPS 18 hr, inhibitor added 30 min prior to stimulation; for Block of PGE2 release: long-term LPS stimulation, 50 μM inhibitor, result in words
Description: cPLA2 and iPLA2 are expressed in macrophage cells. It was therefore of interest to determine if the PLA2 inhibitors of the invention acted on either or both of cPLA2 and iPLA2 in macrophages. To that end, P388D1 murine macrophages were maintained at 37° C. in a humidified 10% CO2 atmosphere. Cells were grown in Iscove's Modified Dulbecco's Medium (IMDM with 10% fetal calf serum (HyClone Labs, Provo Utah), 100 units/mL penicillin and 100 μg/mL streptomycin (Invitrogen, Carlsbad Calif.). Cells were routinely passaged every 2-3 days when the cells reached 75-80% confluence. Cells used for stimulation were plated at a density of 10^6 cells per well in standard 12 well tissue culture plates and were allowed to adhere overnight.
Macrophages were stimulated by treating P338D1 cells with either lipopolysaccharide (LPS) alone or LPS combined with platelet activating factor (PAF). Briefly, cells were washed twice with starvation media (IMDM containing 0.2% fetal calf serum, 100 units/mL penicillin and 100 μg/mL streptomycin) and then incubated with 1 mL of starvation media for one hour. Cells were then exposed to either 100 ng/mL LPS for 18 hours or 200 ng/mL LPS for one hour. Cells treated with 200 ng/mL LPS were then exposed to 100 nM PAF for 15 minutes. At the end of the stimulation, the media was removed from the cells, cleared of cellular debris by centrifugation and analyzed for prostaglandin E2 (PGE2) levels by enzyme-linked immunoassay (Cayman Chemical, Ann Arbor Mich.).
Inhibitor compounds were dissolved in DMSO and diluted into starvation media prior to addition to cells; the DMSO concentration was kept below 0.5% v/v in all studies. All inhibitors were added 30 minutes prior to stimulation.

acetic acid writhing = experiment: Acetic acid writhing test, analgesic activity; type: in vivo, rat
Description: The acetic acid writhing test was used to assess the analgesic activity in rats (reference drug sodium acetylsalicylate, at 1 mmol/kg, 93.4%). The inhibitors were given ip and 30 min later 1 mL/100 g body weight of 0.6% acetic acid was given ip.

[1] = system: carrageenan-induced paw edema; experiment: Rat carrageenan-induced paw edema assay, ip, acute inflammation; type: in vivo; conditions: after 3.5 h; for ED50: Rattus norvegicus, carrageenin paw edema test, ip
Description: The experiments were conducted on Fisher 344 female rats weighing 200-260 g. Acute anti-inflammatory activity was measured after 3.5 h by reduction of rat paw carrageenan edema, induced by injection of 0.1 mL carrageenan 2% (K100, commercially available) in sterilized saline intradermally into the right footpad. The examined compounds were administered intraperitoneally (ip) simultaneously. Control animals accepted only vehicle.

cPLA2 = molecular target: T1, cPLA2 (Homo sapiens, UniProt P47712); experiment: cPLA2 activity on TX-100/PAPC mixed micelles, inhibition by 2-oxoamides; type: biochemical; conditions: for XI(50) (mole fraction): Table 2, iPLA2
T1 sequence (P47712 1-749): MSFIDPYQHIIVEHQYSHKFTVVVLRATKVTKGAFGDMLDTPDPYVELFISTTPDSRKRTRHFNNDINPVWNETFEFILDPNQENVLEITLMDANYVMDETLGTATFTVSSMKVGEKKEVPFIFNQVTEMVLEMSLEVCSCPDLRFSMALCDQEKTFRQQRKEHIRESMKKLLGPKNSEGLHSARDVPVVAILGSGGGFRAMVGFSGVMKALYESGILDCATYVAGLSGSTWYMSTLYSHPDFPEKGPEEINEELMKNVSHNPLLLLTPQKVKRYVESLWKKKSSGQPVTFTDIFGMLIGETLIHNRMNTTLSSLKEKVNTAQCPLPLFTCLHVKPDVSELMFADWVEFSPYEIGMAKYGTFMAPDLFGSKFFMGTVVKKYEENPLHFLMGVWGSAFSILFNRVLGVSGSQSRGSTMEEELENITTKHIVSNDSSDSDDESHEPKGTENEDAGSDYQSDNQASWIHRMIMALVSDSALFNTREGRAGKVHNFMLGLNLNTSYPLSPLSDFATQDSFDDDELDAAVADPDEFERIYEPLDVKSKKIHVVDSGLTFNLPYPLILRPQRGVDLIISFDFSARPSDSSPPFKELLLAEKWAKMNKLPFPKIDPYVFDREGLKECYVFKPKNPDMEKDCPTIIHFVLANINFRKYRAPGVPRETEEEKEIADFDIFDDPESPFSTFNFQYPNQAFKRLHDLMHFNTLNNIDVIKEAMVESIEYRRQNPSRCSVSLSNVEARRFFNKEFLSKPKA

[2] = system: formalin induced flinching; experiment: Formalin induced flinching; type: in vivo, rat; conditions: intrathecal pretreatment 10 min; result in words
spontaneous movement = conditions: rat, in vivo
[3] = mixed micelles TX-100 400 μM, PAPC 97 μM, PIP2 3 μM (0.6 mole %)

Row | SMILES | inhibition at 50 µM (P388D1 cells) | IC50 (P388D1 cells) | Block of PGE2 release (P388D1 cells) | ED50 [1] | XI(50) (mole fraction) (cPLA2) | XI(50) (cPLA2; [3]) | further results
1 | CCCCCCCCCCCCCCC(=O)C(=O)NCCCC(=O)O [OA1, 4-[(2-oxohexadecanoyl)amino]butanoic acid] | ~60% | 7.8 µM | completely block | 10 µmol/kg | 0.017 ± 0.009 mole fraction | 0.017±0.009 mole fraction | Analgesic activity (acetic acid writhing; ip dose of 0.01 mmol/kg): 92.7%
2 | COc1ccc2c(c1)c(CC(=O)O)c(C)n2C(=O)c1ccc(Cl)cc1 [indomethacin, reference compound] | – | – | – | – | – | – | % inhibition of carrageenan paw edema ([1]; reference drug at 0.011 mmol/kg): 47%
3 | CCCCCCCCCCC(=O)C(=O)N[C@@H](CCCC)CCC(=O)O [OA4, (4S)-4-[(2-Oxododecanoyl)amino]octanoic acid] | ~60% | 5.8 µM | completely block | 100 µmol/kg | 0.009 ± 0.004 mole fraction | 0.009±0.004 mole fraction and 0.009 mole fraction | melting point: 50 to 52 °C; Analgesic activity (acetic acid writhing; ip dose of 0.1 mmol/kg): 63%; XI(50) (cPLA2; mixed micelles TX-100 3 mM, PAPC 1 mM, no PIP2 present): 0.0027±0.0012 mole fraction; Inhibition of cPLA2 (cPLA2; result in words): quite potent
4 | CC(=O)Oc1ccccc1C(=O)[O-].[Na+] [sodium acetylsalicylate, reference compound] | – | – | – | – | – | – | Analgesic activity (acetic acid writhing; reference drug at 1 mmol/kg): 93.4%
5 | O=C1O/C(=C/Br)CCC1c1cccc2ccccc12 (stereo not shown) [BEL, bromoenol lactone] | – | – | – | – | – | – | Effect on formalin induced flinching [2]: suppression; Effect on spontaneous movement / normal motor function (spontaneous movement): did have such an effect; Effect on spontaneous movement / normal motor function (spontaneous movement; 60 min): suppressed spontaneous movement
